Experimental data reported in PubChem BioAssay AID1259407 (Chemical Carcinogenesis Research Information System (CCRIS), 2018).
The source made the active and inactive calls. How the calls were made is not given here.

Test system: CCRIS mutagenicity, Ames/micronucleus/aberration tests
Experiment: CCRIS mutagenicity studies
[1] = Test System: AMES SALMONELLA TYPHIMURIUM, Strain/Indicator: TA98, Metabolic Activation: NONE, Method: STANDARD PLATE
[2] = Test System: AMES SALMONELLA TYPHIMURIUM, Strain/Indicator: TA98, Metabolic Activation: RAT, LIVER, S-9, AROCLOR 1254, Method: STANDARD PLATE
[3] = Test System: AMES SALMONELLA TYPHIMURIUM, Strain/Indicator: TA100, Metabolic Activation: RAT, LIVER, S-9, AROCLOR 1254, Method: STANDARD PLATE
[4] = Test System: AMES SALMONELLA TYPHIMURIUM, Strain/Indicator: TA1535, Metabolic Activation: NONE, Method: STANDARD PLATE
[5] = Test System: AMES SALMONELLA TYPHIMURIUM, Strain/Indicator: TA1535, Metabolic Activation: RAT, LIVER, S-9, AROCLOR 1254, Method: STANDARD PLATE
[6] = Test System: AMES SALMONELLA TYPHIMURIUM, Strain/Indicator: TA1537, Metabolic Activation: NONE, Method: STANDARD PLATE
[7] = Test System: AMES SALMONELLA TYPHIMURIUM, Strain/Indicator: TA1537, Metabolic Activation: RAT, LIVER, S-9, AROCLOR 1254, Method: STANDARD PLATE

Q: Which results are given for C=C(CN(C)C)C(=O)c1ccccc1?
A: mutagenic call (Test System: AMES SALMONELLA TYPHIMURIUM, Strain/Indicator: TA97A, Metabolic Activation: NONE, Method: SPOT TEST): inactive; negative; mutagenic call (Test System: AMES SALMONELLA TYPHIMURIUM, Strain/Indicator: TA97A, Metabolic Activation: RAT LIVER S-9, Method: SPOT TEST): inactive; negative; mutagenic call (Test System: AMES SALMONELLA TYPHIMURIUM, Strain/Indicator: TA98, Metabolic Activation: NONE, Method: SPOT TEST): inactive; negative; mutagenic call (Test System: AMES SALMONELLA TYPHIMURIUM, Strain/Indicator: TA98, Metabolic Activation: RAT LIVER S-9, Method: SPOT TEST): inactive; negative; mutagenic call (Test System: AMES SALMONELLA TYPHIMURIUM, Strain/Indicator: TA100, Metabolic Activation: NONE, Method: SPOT TEST): inactive; negative; mutagenic call (Test System: AMES SALMONELLA TYPHIMURIUM, Strain/Indicator: TA100, Metabolic Activation: RAT LIVER S-9, Method: SPOT TEST): active; positive; mutagenic call (Test System: AMES SALMONELLA TYPHIMURIUM, Strain/Indicator: TA102, Metabolic Activation: NONE, Method: SPOT TEST): inactive; negative; mutagenic call (Test System: AMES SALMONELLA TYPHIMURIUM, Strain/Indicator: TA102, Metabolic Activation: RAT LIVER S-9, Method: SPOT TEST): inactive; negative; mutagenic call (Test System: AMES SALMONELLA TYPHIMURIUM, Strain/Indicator: TA104, Metabolic Activation: NONE, Method: SPOT TEST): inactive; negative; mutagenic call (Test System: AMES SALMONELLA TYPHIMURIUM, Strain/Indicator: TA104, Metabolic Activation: RAT LIVER S-9, Method: SPOT TEST): inactive; negative; mutagenic call (Test System: AMES SALMONELLA TYPHIMURIUM, Strain/Indicator: TA1535, Metabolic Activation: NONE, Method: SPOT TEST): inactive; negative; mutagenic call (Test System: AMES SALMONELLA TYPHIMURIUM, Strain/Indicator: TA1538, Metabolic Activation: NONE, Method: SPOT TEST): inactive; negative

Q: Which results are given for O=C1c2ccccc2C(=O)c2cc(O)ccc21?
A: mutagenic call (Test System: AMES SALMONELLA TYPHIMURIUM, Strain/Indicator: TA98, Metabolic Activation: NONE, Method: PREINCUBATION): active; positive; mutagenic call (Test System: AMES SALMONELLA TYPHIMURIUM, Strain/Indicator: TA98, Metabolic Activation: RAT, LIVER, S-9, AROCLOR 1254 (10%), Method: PREINCUBATION): active; positive; mutagenic call (Test System: AMES SALMONELLA TYPHIMURIUM, Strain/Indicator: TA100, Metabolic Activation: NONE, Method: PREINCUBATION): inactive; negative; mutagenic call (Test System: AMES SALMONELLA TYPHIMURIUM, Strain/Indicator: TA100, Metabolic Activation: RAT, LIVER, S-9, AROCLOR 1254 (10%), Method: PREINCUBATION): inactive; negative

Q: CC(=O)Nc1ccc(S(=O)(=O)O)c2cc(S(=O)(=O)O)c(N=Nc3ccc(N=Nc4ccc(S(=O)(=O)O)cc4)c4ccc(S(=O)(=O)O)cc34)c(O)c12 was tested. Which mutagenic call (Test System: AMES SALMONELLA TYPHIMURIUM, Strain/Indicator: TA98, Metabolic Activation: HAMSTER, LIVER, S-9, AROCLOR 1254, Method: STANDARD PLATE) did it give?
A: The mutagenic call was “inactive; negative”.

Q: And the mutagenic call [1]?
A: Its mutagenic call is “inactive; negative”.

Q: What about the mutagenic call [2] of the same compound?
A: Its mutagenic call is “inactive; negative”.

Q: And the mutagenic call (Test System: AMES SALMONELLA TYPHIMURIUM, Strain/Indicator: TA100, Metabolic Activation: HAMSTER, LIVER, S-9, AROCLOR 1254, Method: STANDARD PLATE)?
A: The mutagenic call was “inactive; negative”.

Q: And the mutagenic call (Test System: AMES SALMONELLA TYPHIMURIUM, Strain/Indicator: TA100, Metabolic Activation: NONE, Method: STANDARD PLATE)?
A: Its mutagenic call is “inactive; negative”.

Q: What about the mutagenic call [3] of the same compound?
A: The mutagenic call was “inactive; negative”.

Q: And the mutagenic call (Test System: AMES SALMONELLA TYPHIMURIUM, Strain/Indicator: TA1535, Metabolic Activation: HAMSTER, LIVER, S-9, AROCLOR 1254, Method: STANDARD PLATE)?
A: The mutagenic call was “inactive; negative”.

Q: And the mutagenic call [4]?
A: Its mutagenic call is “inactive; negative”.

Q: What about the mutagenic call [5] of the same compound?
A: Its mutagenic call is “inactive; negative”.

Q: What about the mutagenic call (Test System: AMES SALMONELLA TYPHIMURIUM, Strain/Indicator: TA1537, Metabolic Activation: HAMSTER, LIVER, S-9, AROCLOR 1254, Method: STANDARD PLATE) of the same compound?
A: The mutagenic call was “inactive; negative”.

Q: And the mutagenic call [6]?
A: Its mutagenic call is “inactive; negative”.

Q: And the mutagenic call [7]?
A: Its mutagenic call is “inactive; negative”.

Q: And the mutagenic call (Test System: MOUSE LYMPHOMA, Strain/Indicator: L5178Y (TK+/TK-), Metabolic Activation: NONE, Method: SUSPENSION/PLATE)?
A: Its mutagenic call is “inactive; negative. reevaluation of results: negative”.

Q: What about the mutagenic call (Test System: MOUSE LYMPHOMA, Strain/Indicator: L5178Y (TK+/TK-), Metabolic Activation: RAT, LIVER, S-9, AROCLOR 1254, Method: SUSPENSION/PLATE) of the same compound?
A: The mutagenic call was “active; positive. reevaluation of results: equivocal”.

Q: How did the mutagenic call [2] turn out when Cc1cnc2c(n1)c(C)cc1c2nc(N)n1C was run?
A: The mutagenic call was “active; positive”.

Q: With O=C1c2cc(S(=O)(=O)O)ccc2C(=O)c2c1cccc2[N+](=O)[O-] as the compound, how does the mutagenic call [1] read?
A: The mutagenic call was “active; positive”.

Q: What about the mutagenic call [2] of the same compound?
A: The mutagenic call was “active; positive”.

Q: What about the mutagenic call [3] of the same compound?
A: The mutagenic call was “inactive; negative”.

Q: And the mutagenic call [4]?
A: Its mutagenic call is “inactive; negative”.

Q: And the mutagenic call [5]?
A: Its mutagenic call is “inactive; negative”.

Q: What about the mutagenic call [6] of the same compound?
A: Its mutagenic call is “active; positive”.

Q: And the mutagenic call [7]?
A: Its mutagenic call is “active; positive”.

Q: What about the mutagenic call (Test System: AMES SALMONELLA TYPHIMURIUM, Strain/Indicator: TA1538, Metabolic Activation: NONE, Method: STANDARD PLATE) of the same compound?
A: The mutagenic call was “active; positive”.

Q: And the mutagenic call (Test System: AMES SALMONELLA TYPHIMURIUM, Strain/Indicator: TA1538, Metabolic Activation: RAT, LIVER, S-9, AROCLOR 1254, Method: STANDARD PLATE)?
A: The mutagenic call was “active; positive”.

Q: Which results are given for CC(F)F?
A: mutagenic call (Test System: AMES SALMONELLA TYPHIMURIUM, Strain/Indicator: TA98, Metabolic Activation: NONE, Method: GAS EXPOSURE): inactive; negative; mutagenic call (Test System: AMES SALMONELLA TYPHIMURIUM, Strain/Indicator: TA98, Metabolic Activation: RAT LIVER S-9, PHENOBARBITAL AND BETA-NAPHTHOFLAVONE, Method: GAS EXPOSURE): inactive; negative; mutagenic call (Test System: AMES SALMONELLA TYPHIMURIUM, Strain/Indicator: TA100, Metabolic Activation: NONE, Method: GAS EXPOSURE): inactive; negative; mutagenic call (Test System: AMES SALMONELLA TYPHIMURIUM, Strain/Indicator: TA100, Metabolic Activation: RAT LIVER S-9, PHENOBARBITAL AND BETA-NAPHTHOFLAVONE, Method: GAS EXPOSURE): inactive; negative; mutagenic call (Test System: AMES SALMONELLA TYPHIMURIUM, Strain/Indicator: TA1535, Metabolic Activation: NONE, Method: GAS EXPOSURE): inactive; negative; mutagenic call (Test System: AMES SALMONELLA TYPHIMURIUM, Strain/Indicator: TA1535, Metabolic Activation: RAT LIVER S-9, PHENOBARBITAL AND BETA-NAPHTHOFLAVONE, Method: GAS EXPOSURE): inactive; negative; mutagenic call (Test System: AMES SALMONELLA TYPHIMURIUM, Strain/Indicator: TA1537, Metabolic Activation: NONE, Method: GAS EXPOSURE): inactive; negative; mutagenic call (Test System: AMES SALMONELLA TYPHIMURIUM, Strain/Indicator: TA1537, Metabolic Activation: RAT LIVER S-9, PHENOBARBITAL AND BETA-NAPHTHOFLAVONE, Method: GAS EXPOSURE): inactive; negative; mutagenic call (Test System: E.COLI, Strain/Indicator: WP2UVRA, Metabolic Activation: NONE, Method: GAS EXPOSURE): inactive; negative; mutagenic call (Test System: E.COLI, Strain/Indicator: WP2UVRA, Metabolic Activation: RAT LIVER S-9, PHENOBARBITAL AND BETA-NAPHTHOFLAVONE, Method: GAS EXPOSURE): inactive; negative
